Consider 7 compounds from US8080549B2, “Endothelin receptor antagonists” (CoNCERT Pharmaceuticals, Inc., priority 2007, dated 2011).

Series [1] concerns the target T1, CYP3A4 (Homo sapiens, UniProt P08684).
T1 construct: purchased BD Gentest
Nature of the series: Metabolic stability in CYP3A4 Supersomes. The format is in vitro ADME. To be noted: human, recombinant CYP3A4 Supersomes, 1 μM test compound. As for the experimental part:
(§1) Materials: CYP3A4 Supersomes™ were obtained from BD Gentest. β-nicotinamide adenine dinucleotide phosphate, reduced form (NADPH), magnesium chloride (MgCl2), and dimethyl sulfoxide (DMSO) were purchased from Sigma-Aldrich.
(§2) Determination of Metabolic Stability: 7.5 mM stock solutions of test compounds were prepared in DMSO. The 7.5 mM stock solutions were diluted to 50 μM in acetonitrile (ACN). The 1000 pmol/mL CYP3A4 supersomes were diluted to 50 pmol/mL in 0.1 M potassium phosphate buffer, pH 7.4, containing 3 mM MgCl2. The diluted supersomes were added to wells of a 96-well deep-well polypropylene plate in triplicate. 10 μL of the 50 μM test compound was added to the supersomes and the mixture was pre-warmed for 10 minutes. Reactions were initiated by addition of pre-warmed NADPH solution. The final reaction volume was 0.5 mL and contained 40 pmol/mL CYP3A4 supersomes, 1 μM test compound, and 2 mM NADPH in 0.1 M potassium phosphate buffer, pH 7.4, and 3 mM MgCl2. The reaction mixtures were incubated at 37° C. and 50 μL aliquots were removed at 0, 5, 10, 20, and 30 minutes and added to shallow-well 96-well plates which contained 50 μL of ice-cold ACN with internal standard to stop the reactions. The plates were stored at 4° C. for 20 minutes after which 100 μL of water was added to the wells of the plate before centrifugation to pellet precipitated proteins. Supernatants were transferred to another 96-well plate and analyzed for amounts of parent remaining by LC-MS/MS using an Applied Bio-systems API 4000 mass spectrometer.
(§3) Data analysis: The in vitro t1/2s for test compounds were calculated from the slopes of the linear regression of % parent remaining (ln) vs incubation time relationship. • in vitro t1/2=0.693/k • k=−[slope of linear regression of % parent remaining(ln) vs incubation time]
(§4) Data analysis was performed using Microsoft Excel Software.

For series [2], the target named is T2, CYP3A4 supersomes (Homo sapiens, UniProt P08684).
T2 construct: purchased BD Gentest
T2 sequence (P08684 whole entry): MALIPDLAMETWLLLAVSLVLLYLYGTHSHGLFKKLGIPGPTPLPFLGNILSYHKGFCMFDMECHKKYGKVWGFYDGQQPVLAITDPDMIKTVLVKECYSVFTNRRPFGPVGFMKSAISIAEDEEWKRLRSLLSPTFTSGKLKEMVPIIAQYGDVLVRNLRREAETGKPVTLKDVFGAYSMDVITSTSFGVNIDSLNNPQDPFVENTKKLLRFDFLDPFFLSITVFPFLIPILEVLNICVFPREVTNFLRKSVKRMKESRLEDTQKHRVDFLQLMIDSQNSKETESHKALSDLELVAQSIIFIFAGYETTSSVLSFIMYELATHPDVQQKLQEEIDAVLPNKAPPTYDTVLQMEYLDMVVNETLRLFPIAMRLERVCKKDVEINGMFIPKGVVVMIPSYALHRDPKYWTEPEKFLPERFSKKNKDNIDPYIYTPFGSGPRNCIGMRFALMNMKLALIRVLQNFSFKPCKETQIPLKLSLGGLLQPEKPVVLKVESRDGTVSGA
The series can be described thus: Metabolic stability in CYP3A4 Supersomes. The format is in vitro ADME. To be noted: for increase of in vitro t1/2 over non-deuterated bosentan: CYP3A4 supersomes, under the assay conditions tested, approximate values; for % Difference: [(deuterated species) − (nondeuterated species)](100)/(nondeuterated species), of Ave t1/2 vs bosentan. As for the experimental part: as §1, §2, §3, §4

For series [3] the following is noted: active metabolite of bosentan; cited from earlier work.
[4] abbreviates: pH 7.4, average of Experiments 1 and 2, CYP3A4 supersomes, read-out: Ave t1/2.
The mark [5] stands for this setting: pH 7.4, in vitro half-life, 40 pmol/mL CYP3A4 supersomes, 2 mM NADPH, pH 7.4, 37° C., 0-30 minutes, Experiment 1, read-out: t1/2 (minutes) Experiment 1.
Setting [6] is: pH 7.4, in vitro half-life, 40 pmol/mL CYP3A4 supersomes, 2 mM NADPH, pH 7.4, 37° C., 0-30 minutes, Experiment 2, read-out: t1/2 (minutes) Experiment 2.

Where two headings read alike, the source gives them in different places.

T1 sequence (P08684 whole entry): as above

Regarding `[2H]C([2H])([2H])Oc1ccccc1Oc1c(NS(=O)(=O)c2ccc(C(C)(C)C)cc2)nc(-c2ncccn2)nc1OCCO` [Compound 102, 4-tert-Butyl-N-(6-(2-hydroxyethoxy)-5-(2-(methoxy-d3)-phenoxy)-2,2′-bipyrimidin-4-yl)benzenesulfonamide], the figures for the half-life at 1 μM in series [1] (setting [4]), in series [1] (setting [5]) and in series [1] (setting [6]) were 46.2 min, 45.7 min and 46.8 min, respectively. Further, the “increase of in vitro t1/2 over non-deuterated bosentan” value in series [2] was around 29%. The “% Difference” value in series [2] was 29.1%.

`[2H]C([2H])([2H])C(c1ccc(S(=O)(=O)Nc2nc(-c3ncccn3)nc(OCCO)c2Oc2ccccc2OC)cc1)(C([2H])([2H])[2H])C([2H])([2H])[2H]` [Compound 103, 4-(tert-Butyl-d9)-N-(6-(-2-hydroxyethoxy)-5-(2-methoxyphenoxy)-2,2′-bipyrimidin-4-yl)benzenesulfonamide]: the half-life at 1 μM in series [1] (setting [4]) amounted to 38.2 min; in series [1] (setting [5]), 35.9 min; in series [1] (setting [6]), 40.5 min. Also, in series [2], the “% Difference” value was found to be 6.7%.

In the case of `COc1ccccc1Oc1c(NS(=O)(=O)c2ccc(C(C)(C)CO)cc2)nc(-c2ncccn2)nc1OCCO` [hydroxybosentan], in series [3], the “share of the overall pharmaceutical properties of bosentan” value is “up to 20%”.

For the compound `[2H]C([2H])(O)COc1nc(-c2ncccn2)nc(NS(=O)(=O)c2ccc(C(C([2H])([2H])[2H])(C([2H])([2H])[2H])C([2H])([2H])[2H])cc2)c1Oc1ccccc1OC([2H])([2H])[2H]` [Compound 106, 4-(tert-Butyl-d9)-N-(6-(2-hydroxy-2,2-d2-ethoxy)-5-(2-(methoxy-d3)phenoxy)-2,2′-bipyrimidin-4-yl)benzenesulfonamide], the half-life at 1 μM turned out to be 55.2 min in series [1] (setting [4]), 53.3 min in series [1] (setting [5]) and 57.2 min in series [1] (setting [6]). In addition, in series [2], the “increase of in vitro t1/2 over non-deuterated bosentan” value is on record as around 54%. In series [2], the “% Difference” value came out at 54.2%.

For the compound `[2H]C([2H])(O)COc1nc(-c2ncccn2)nc(NS(=O)(=O)c2ccc(C(C)(C)C)cc2)c1Oc1ccccc1OC` [Compound 104, 4-tert-Butyl-N-(6-(2-hydroxy-2,2-d2-ethoxy)-5-(2-methoxyphenoxy)-2,2′-bipyrimidin-4-yl)benzenesulfonamide], the half-life at 1 μM in series [1] (setting [4]) turned out to be 31.6 min; in series [1] (setting [5]), 30.9 min; in series [1] (setting [6]), 32.4 min. In addition, in series [2], the “% Difference” value is recorded as −11.7%.

`COc1ccccc1Oc1c(NS(=O)(=O)c2ccc(C(C)(C)C)cc2)nc(-c2ncccn2)nc1OCCO` [Bosentan, N[6-(2-hydroxyethoxy)-5-(2-methoxyphenoxy)-2-pyrimidin-2-yl-pyrimidin-4-yl]-4-tert-butyl-benzenesulfonamide, reference compound]: the half-life at 1 μM in series [1] (setting [4]) turned out to be 35.8 min; in series [1] (setting [5]) it was 34.3 min; in series [1] (setting [6]), 37.2 min.

With `[2H]C([2H])([2H])Oc1ccccc1Oc1c(NS(=O)(=O)c2ccc(C(C([2H])([2H])[2H])(C([2H])([2H])[2H])C([2H])([2H])[2H])cc2)nc(-c2ncccn2)nc1OCCO` [Compound 101, 4-(tert-Butyl-d9)-N-(6-(2-hydroxyethoxy)-5-(2-(methoxy-d3)-phenoxy)-2,2′-bipyrimidin-4-yl)benzenesulfonamide], the half-life at 1 μM in series [1] (setting [4]) came out at 41.2 min; in series [1] (setting [5]), 41 min; in series [1] (setting [6]) it was 41.3 min. The “increase of in vitro t1/2 over non-deuterated bosentan” value in series [2] is given as around 15%. Also, the “% Difference” value in series [2] is 15.1%.
